{
  "source": "paper PMC11674187",
  "about": "“Inhibitory Effects of Cenobamate on Multiple Human Cardiac Ion Channels and Possible Arrhythmogenic Consequences” (Biomolecules, 2024)",
  "origin": "cited, not measured here",
  "key": {"[1]": {"test_system": "voltage-gated sodium channels in rat hippocampal CA3 neurons", "conditions": "cited from earlier work; for IC50: newborn rat CA3 hippocampal neurons, ref [22]"}, "[2]": {"parameters": "method as in PMID 33031714", "conditions": "adults with focal onset seizures; ref [2]; cited from earlier work"}, "IKr (hERG)": {"test_system": "IKr (hERG)", "conditions": "read-out: apparent IC50 for IKr (hERG); used for further computations; ref [5] p. 10; cited from earlier work"}, "[3]": {"conditions": "cited from earlier work"}, "[4]": {"conditions": "mouse; ref [5] p.10; cited from earlier work"}, "[5]": {"conditions": "ref https://go.drugbank.com/drugs/DB06119; cited from earlier work"}},
  "note": "Like-named read-outs stand apart in the source and are kept apart here.",
  "data": [
    {"smiles": "NC(=O)O[C@@H](Cn1ncnn1)c1ccccc1Cl", "note": "[cenobamate]", "values": [
      {"measurement": "change in half-inactivation potential", "setting": "[1]; 100 µM cenobamate, ref [22] Nakamura et al., 2019", "value": "−6", "unit": "mV"},
      {"measurement": "IC50", "setting": "[1]; read-out: IC50 on late (persistent) INa", "value": 53.1, "unit": "µM"},
      {"measurement": "IC50", "setting": "[1]; read-out: estimated IC50 on peak (transient) Na+ current", "value": "> 500", "unit": "µM"},
      {"measurement": "Kd", "setting": "[1]; ref [22] Nakamura et al., 2019, read-out: KR (affinity for resting (closed) conformation)", "value": 798, "unit": "µM"},
      {"measurement": "reduction in monthly seizure frequency", "setting": "[2]", "value": "up to 55%"},
      {"measurement": "seizure-free rates", "setting": "[2]", "value": "up to 28%"},
      {"measurement": "IC50", "setting": "IKr (hERG)", "value": 1870, "unit": "µM"},
      {"measurement": "peak plasma therapeutic concentration (Cmax)", "setting": "[3]; 400 mg/day, study YKP3089C018, ref [5] p. 13", "value": 45500, "unit": "ng/mL"},
      {"measurement": "Cmax", "setting": "[3]; read-out: Cmax (maximal effective therapeutic plasma concentration), 400 mg/day, ref [5] p. 13 / p. 10", "value": 170, "unit": "µM"},
      {"measurement": "Cmax", "setting": "[3]; read-out: Cmax (model script), value entered in C++ script, ref [5]", "value": 170, "unit": "µM"},
      {"measurement": "protein binding", "setting": "[4]", "value": 43.2, "unit": "%"},
      {"measurement": "logP", "setting": "[5]", "value": 1.66},
      {"measurement": "physiological charge", "setting": "[5]", "value": 0},
      {"measurement": "strongest acidic pKa", "setting": "[5]", "value": 14.28},
      {"measurement": "strongest basic pKa", "setting": "[5]", "value": "−1.7"}
    ]}
  ]
}
